Test results: article PMC8774648, “Effects of Baicalein and Chrysin on the Structure and Functional Properties of β-Lactoglobulin” (Foods, 2022)
Values joined by “and” are separate entries in the source; they are usually repeats but may differ in a detail not shown here. Identical values can stand only once. Like-named read-outs stand apart in the source and are kept apart here. Marks after values point to notes of the source that are not given here.

Columns and labels:
β-lactoglobulin (BLG) [1] = biological target: T1, β-lactoglobulin (BLG) (Bos taurus, UniProt P02754); assay: Intrinsic fluorescence quenching of BLG by Bai/Chr (Stern–Volmer and double logarithmic equations); format: binding; conditions: for Ksv (Stern–Volmer quenching constant) / Kd: pH 6.8; for BLG fluorescence quenching: after 10 times titration, c(BLG) = 20 µM
T1 construct: purchased Sigma–Aldrich Co. (St. Louis, MO, USA)
T1 sequence (P02754 17-178): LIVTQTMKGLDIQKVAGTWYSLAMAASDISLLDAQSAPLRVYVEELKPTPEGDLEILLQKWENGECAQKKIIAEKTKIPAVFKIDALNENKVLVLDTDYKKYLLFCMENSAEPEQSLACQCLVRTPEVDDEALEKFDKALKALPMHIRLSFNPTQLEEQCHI
Method: (§1) Intrinsic fluorescence spectroscopic test was measured on a F–7000 spectrophotometer (Hitachi, Japan) equipped with temperature controller according to the method described in the previous study. Briefly, 3 mL solution of BLG (20.0 µM) was titrated by continuously adding different amounts of Bai or Chr (0–20.0 µM). The fluorescence spectra were recorded at different temperatures (298 K, 304 K, and 310 K) with the excitation wavelength of 280 nm and the excitation and emission slit set at 2.5 nm. Moreover, synchronous fluorescence spectra were conducted by setting the wavelength intervals (λem–λex) at 15 nm and 60 nm, respectively. The 3D fluorescence spectra (molar ratios of BLG to Bai/Chr were 1:0 and 1:1) were recorded at excitation and emission wavelength range of 200−600 nm. All the fluorescence values were corrected to eliminate the internal filtering effect according to the previous method, and were used to evaluate the quenching mechanism of Bai/Chr binding to BLG by using the following equation [21]:(1) F0/F=1+Kqτ0[Q]=1+KSV[Q] where F and F0 are the fluorescence intensities of fluorophore with and without quencher; Ksv denotes the Stern–Volmer quenching constant; Kq is the quenching rate constant (Kq = Ksv/τ0), and τ0 is the average lifetime of the biomolecule in the absence of a quencher (τ0 = 10^−8 s); [Q] represents the experimental concentration of Bai/Chr.
For static fluorescence quenching mechanism, the binding constant (Ka) and the number of binding sites (n) could be determined by the following equation [22]:(2) logF0−F/F=nlogKa−nlog1/[Qt]−(F0−F)[Pt]/F0 where [Qt] and [Pt] are the concentrations of Bai/Chr and BLG, respectively.

β-lactoglobulin (BLG) [2] = biological target: T1, β-lactoglobulin (BLG); assay: Three-dimensional fluorescence spectra of BLG with Bai/Chr; conditions: c(BLG) = 20.0 µM, c(Bai/Chr) = 20.0 μM; for fluorescence intensity of Peak 2 (3D fluorescence): free BLG 430.6; for fluorescence intensity of Peak 1 (3D fluorescence): free BLG 522.1
Method: as §1

β-lactoglobulin (BLG) [3] = biological target: T1, β-lactoglobulin (BLG); assay: CD spectra, secondary structure contents of BLG
Method: The CD spectra in the range of 200–250 nm were obtained from a CD spectrometer (MOS 450, Bio–Logic, Claix, France) equipped with 1.0 mm path length cuvette under the constant nitrogen flush. The solutions were prepared with molar ratios of Bai or Chr to BLG of 0:1, 1:1, and 2:1, respectively. The contents of secondary structure of BLG were determined based on our previously reported study.

β-lactoglobulin (BLG) [4] = biological target: T1, β-lactoglobulin (BLG); assay: Free sulfhydryl (SH) content of BLG (DTNB); conditions: Bai/Chr 0 to 20.0 µM, BLG 20.0 µM
Method: The content of free SH was determined by spectrophotometry according to the report by Takić et al. with minor modifications. Briefly, Bai/Chr concentrations were varied from 0 to 20.0 µM, and BLG was kept at 20.0 µM. Then the two solutions were incubated with 10.0 mM DTNB in 50 mM PBS (pH 6.8) for 30 min at room temperature. The absorbance of the sample at 412 nm was recorded and the molar extinction coefficient (14,360 M^−1 cm^−1) was obtained from the standard curve of L-cysteine, which was used to calculate the number of total sulfhydryl groups per gram of protein.

β-lactoglobulin (BLG) [5] = biological target: T1, β-lactoglobulin (BLG); assay: Protein surface hydrophobicity (PSH) of BLG with ANS probe
Method: PSH of BLG in the presence or absence of Bai or Chr was determined using ANS as a fluorescent probe. In the BLG solution (20.0 µM) alone or Bai/Chr–BLG mixture the ANS solution (5 mM) was continuously added until the fluorescence intensity of the mixture remained constant. The fluorescence intensity of the sample was recorded in the wavelength range of 400–600 nm upon 380 nm excitation. The PSH values were calculated by the following equations [26]:(5) [ANS]bound=F/B (6) [ANS]free=[ANS]total−[ANS]bound (7) F/[ANS]free=−F/Kdapp−Fmax/Kdapp (8) PSH=Fmax/[BLG]Kdapp where [ANS]free and [ANS]bound are the concentration of free and bound ANS, respectively. Kdapp is the apparent dissociation constant of ANS, Fmax is the maximum fluorescence intensity at saturating ANS concentration and B is the proportionality coefficient.

β-lactoglobulin (BLG) [6] = biological target: T1, β-lactoglobulin (BLG); assay: Foaming ability and foaming stability of BLG; conditions: for increase of foaming stability (FS) of BLG: compared with BLG alone, molar ratio of BLG to Bai/Chr 10:1; for increase of foaming ability (FA) of BLG: compared with FA of free BLG (25.2%), molar ratios of BLG to Bai/Chr changed from 40:1 to 10:1
Method: Foaming ability (FA) and foaming stability (FS) were measured as described by Wang et al. with some modifications. A certain amount of BLG solution (1.0 mg mL^−1) was added to a 100 mL cylinder, and Bai or Chr was added to form solutions with different ratios of BLG to Bai or Chr (40:1, 30:1, 20:1, 10:1). The initial height H0 of the foam was recorded. The foam was then sheared at 10,000 rpm in a high-speed dispersion machine for 1 min and the height of the foam was recorded as H1. The height of the foam was recorded as H2 30 min later. The FA (%) and FS (%) were calculated according to the following equations:(9) FA (%)=H1−H0/H0×100 (10) FS (%)=H2−H0/H1−H0×100

[7] = general statement for the three temperatures
[8] = molar ratio of Bai/Chr to BLG 1:1
[9] = molar ratio of Bai/Chr to BLG 2:1
[10] = molar ratio of Bai/Chr to BLG 2:1, listed as Bai–BLG
[11] = molar ratio 1:1, versus BLG alone
[12] = molar ratio 2:1, versus BLG alone
[13] = molar ratio of Bai/Chr to BLG 2:1, listed as Chr–BLG

Row | Compound | n (number of binding sites) (β-lactoglobulin (BLG) [1]; T = 298 K) | Ksv (Stern–Volmer quenching constant) (β-lactoglobulin (BLG) [1]; T = 298 K) | n (number of binding sites) (β-lactoglobulin (BLG) [1]; T = 304 K) | Ksv (Stern–Volmer quenching constant) (β-lactoglobulin (BLG) [1]; T = 304 K) | n (number of binding sites) (β-lactoglobulin (BLG) [1]; T = 310 K) | Ksv (Stern–Volmer quenching constant) (β-lactoglobulin (BLG) [1]; T = 310 K) | BLG fluorescence quenching (β-lactoglobulin (BLG) [1]; 298 K) | n (number of binding sites) (β-lactoglobulin (BLG) [1]; [7]) | fluorescence intensity of Peak 2 (3D fluorescence) (β-lactoglobulin (BLG) [2]) | fluorescence intensity of Peak 1 (3D fluorescence) (β-lactoglobulin (BLG) [2]) | Random Coil content of BLG (β-lactoglobulin (BLG) [3]; [8]) | α-Helix content of BLG (β-lactoglobulin (BLG) [3]; [8]) | β-Sheet content of BLG (β-lactoglobulin (BLG) [3]; [8]) | β-Turn content of BLG (β-lactoglobulin (BLG) [3]; [8]) | Random Coil content of BLG (β-lactoglobulin (BLG) [3]; [9]) | β-Turn content of BLG (β-lactoglobulin (BLG) [3]; [9]) | effect on contents of free SH group of BLG (β-lactoglobulin (BLG) [4]) | F max (maximum fluorescence intensity at saturating ANS) (β-lactoglobulin (BLG) [5]; molar ratio 1:1) | PSH (protein surface hydrophobicity) (β-lactoglobulin (BLG) [5]; molar ratio 1:1) | Reduction Rate of PSH (β-lactoglobulin (BLG) [5]; [11]) | also measured
1 | O=c1cc(-c2ccccc2)oc2cc(O)c(O)c(O)c12 [Bai, baicalein] | 1.03 ± 0.03 | 5.75 ± 0.01 ^a ×10^4 L mol^−1 | 1.23 ± 0.02 | 4.76 ± 0.03 ^b ×10^4 L mol^−1 | 1.31 ± 0.03 | 4.47 ± 0.06 ^c ×10^4 L mol^−1 | 63.2% | approximately 1 | 206.8 | 395.4 | 26.47 ± 0.41 ^b % | 14.12 ± 0.70 ^c % | 36.25 ± 0.25 ^b % | 23.16 ± 0.12 ^a % | 25.26 ± 033 ^c % | 24.77 ± 0.54 ^b % | gradually weakened | 154.31 ± 3.09 ^ab | 260.66 ± 5.21 ^b | 20.87 ± 0.42 ^d % | Kd (β-lactoglobulin (BLG) [1]; T = 298 K, read-out: Ka (binding constant) (converted)): 3.6 µM; Kd (β-lactoglobulin (BLG) [1]; T = 304 K, read-out: Ka (binding constant) (converted)): 3.75 µM; Kd (β-lactoglobulin (BLG) [1]; T = 310 K, read-out: Ka (binding constant) (converted)): 3.92 µM; α-Helix content of BLG (β-lactoglobulin (BLG) [3]; [10]): 15.85% and 15.85 ± 0.93 ^b %; β-Sheet content of BLG (β-lactoglobulin (BLG) [3]; [10]): 34.12% and 34.12 ± 0.34 ^d %; F max (maximum fluorescence intensity at saturating ANS) (β-lactoglobulin (BLG) [5]; molar ratio 2:1): 120.27 ± 2.41 ^c; PSH (protein surface hydrophobicity) (β-lactoglobulin (BLG) [5]; molar ratio 2:1): 200.45 ± 4.01 ^d; Reduction Rate of PSH (β-lactoglobulin (BLG) [5]; [12]): 39.15 ± 0.78 ^c %; increase of foaming stability (FS) of BLG (β-lactoglobulin (BLG) [6]): 80.64%; increase of foaming ability (FA) of BLG (β-lactoglobulin (BLG) [6]): 18.08%
2 | O=c1cc(-c2ccccc2)oc2cc(O)cc(O)c12 [Chr, chrysin] | 1.45 ± 0.01 | 3.10 ± 0.04 ^d ×10^4 L mol^−1 | 1.01 ± 0.02 | 2.94 ± 0.06 ^e ×10^4 L mol^−1 | 1.29 ± 0.01 | 2.59 ± 0.04 ^f ×10^4 L mol^−1 | 59.0% | approximately 1 | 205.3 | 378.5 | 25.96 ± 0.34 ^bc % | 14.30 ± 0.47 ^c % | 35.18 ± 0.12 ^c % | 24.56 ± 0.48 ^a % | 31.16 ± 0.10 ^a % | 24.53 ± 0.93 ^a % | gradually weakened | 151.76 ± 3.04 ^b | 252.82 ± 5.07 ^c | 23.25 ± 0.47 ^b % | Ka (binding constant) (β-lactoglobulin (BLG) [1]; 298 K): 214000 L/mol; Kd (β-lactoglobulin (BLG) [1]; Ka (binding constant), T = 298 K): 4.67 µM; Kd (β-lactoglobulin (BLG) [1]; Ka (binding constant), T = 304 K): 4.81 µM; Kd (β-lactoglobulin (BLG) [1]; Ka (binding constant), T = 310 K): 5.13 µM; α-Helix content of BLG (β-lactoglobulin (BLG) [3]; [13]): 11.25% and 11.25 ± 0.58 ^d %; β-Sheet content of BLG (β-lactoglobulin (BLG) [3]; [13]): 33.06% and 33.06 ± 0.30 ^e %; Kdapp (apparent dissociation constant of ANS) (β-lactoglobulin (BLG) [5]; molar ratio 1:1, c(BLG) = 20.0 µM): 5.67 ± 0.31 µM; F max (maximum fluorescence intensity at saturating ANS) (β-lactoglobulin (BLG) [5]; molar ratio 2:1): 110.17 ± 2.20 ^d; PSH (protein surface hydrophobicity) (β-lactoglobulin (BLG) [5]; molar ratio 2:1): 193.69 ± 3.87 ^e; Kdapp (apparent dissociation constant of ANS) (β-lactoglobulin (BLG) [5]; molar ratio 2:1, c(BLG) = 20.0 µM): 5.7 ± 0.1 µM; Reduction Rate of PSH (β-lactoglobulin (BLG) [5]; [12]): 41.20 ± 0.82 ^a %; increase of foaming stability (FS) of BLG (β-lactoglobulin (BLG) [6]): 85.57%; increase of foaming ability (FA) of BLG (β-lactoglobulin (BLG) [6]): 51.32%
